Laboratory results as given in US5157052A, “Method for inhibiting IgE production” (priority 1990, dated 1992).

Tested on: IgE
Test: Serum IgE response induced by FF1-4D5 + H∂A1 anti-IgD antibodies (ELISA, Assay A / Assay F)
Assay type: in vivo, mouse (Balb/c female)
Details: 20 μg days 3 and 4
Experimental: Mouse hybridoma cells expressing either FF1-4D5 antibody or H∂A1 antibody are thawed, established in culture, and incubated in mice as ascite tumors. FF1-4D5 antibody is a mouse IgG2a monoclonal antibody of the b allotype that binds the Fd fragment of the ∂ chain of the a allotype IgD which activates β cells through antigen internalization and processing, promoting cognate interactions with antigen-specific T cells (D. K. Goroff et al., J. Immunol. 136: 2382 (1986)). H∂A1 antibody is a mouse IgG2b of the b allotype that binds the Fc fragment of the ∂ chain of the a allotype IgD which activates β cells through crosslinking IgD (I. M. Zitron and B. L. Clevinger, J. Exp. Med. 152: 1135 (1980)). Each antibody is purified from their respective ascites tumor fluid. […] Serum from the injected mice is recovered and the mean concentration of IgE determined.
Serum levels of IgE are determined and IgE levels are shown to be inhibited in a dose dependent manner.
ELISA (enzyme linked immunosorbant assay) measurements of IgE are as follows. About 5 μg of B1E3 antibody in 100 μl borate buffered saline (pH8.5) is added to wells of a NuncImmulon II 96 well plate (DiRuscio & Assoc., St. Louis, Mo.) at 37° C. for 90 minutes. The non-bound antibody is removed by flicking the plate. Unreacted sites on the plastic plate are blocked by adding about 200 μl of a 2% solution of newborn bovine serum (NBS) in PBS at 37° C. for 60 minutes. The standard IgE (or an unknown murine serum sample) is diluted to between about 4 ng/ml-256 ng/ml in Hanks-HS (20 mM Hepes, 2% NBS in Hanks Balanced Salt Solution, Gibco, Grand Island, N.Y.) or to 1/200 to 1/1000 in Hanks-HS respectively. 100 μl of standard (or unknown dilutions) are added in triplicate to the wells of the plate and allowed to absorb to B1E3 antibody at about 37° C. for 2-4 hours. The solution is removed by flicking the plate and each well is washed with about 0.5 ml 0.05% Tween 20-PBS 5 times. About 100 μl of biotinylated R1E4, called the primary antibody, diluted to 200 ng/ml is added to all wells and incubated at about 4° C. overnight. The solution is removed by flicking the plate and washed 5 times as described above. The developing reagent (Avidin and biotin-horse radish peroxidase) is incubated in 2% NBS in PBS at ambient temperature for 30 minutes, according to manufacturer's specifications (Vector Laboratories, Burlingame, Calif.). About 100 μl of developing reagent is added to each well and incubated at ambient temperature for 30 minutes. Colorimetric substrate for the developing reagent (ABTS peroxidase substrate system, KPL, Gaithersburg, Md.) is prepared by mixing equal volumes of solutions A and B and incubating at ambient temperature for 60 minutes. The developing reagent solution is removed by flicking the plate and washed 5 times as described above. About 100 μl of the mixture of substrates is added to each well and incubated at ambient temperature for 60 minutes. The optical density of each well is determined on a BioTek ELISA reader (Biotek Instruments, Inc., Burlington, Vermont) and the absorbance data transferred electronically to a DEC VAX mainframe computer. A standard curve is fitted to the IgE standard optical densities using straight line, linear regression statistical fits. IgE in the unknown serum samples is determined by comparing the optical density of the unknown to the standard curve and multiplying that number by the dilution of serum used in the assay.
Stimulation of a transient serum IgE response in mouse with two monoclonal antibodies directed against IgD is carried out as follows.
Mouse hybridoma cells expressing either FF1-4D5 antibody or H∂Al antibody are thawed, established in culture, and incubated in CB6 F1 female mice as an ascites tumor and each immunoglobulin is purified from the ascites fluid as described above. […]

Compound: CCCCC(C)(O)C/C=C/[C@H]1[C@H](O)CC(=O)[C@@H]1CCCC(C)(C)CCC(=O)OC (mixture of isomers) [(±) methyl 11α,16-dihydroxy-4,4,16-trimethyl-9-oxoprost-13E-en-1-oate]
- de novo IgE synthesis (Example 25): inhibit de novo IgE synthesis
- IgE ± SD (Table 14, day 8 (control 6071)): < 800 ng/mL
